# Reference: ChEMBL document CHEMBL1201862, “PubChem BioAssay data set” (2004)
#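 The compound was tested at five concentrations on cells cultured in 96-well plates, with a 48-hour exposure period. GI50 marks 50% less growth.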 Active and inactive are the calls of the source. Cut-off read from the data, not from the text of the source: active = GI50 up to about 1.1 µM and inactive = higher.
# Key:
# Test in all cases: inhibition of tumour cell growth, NCI panel, 48 h
# LOX IMVI = system: LOX IMVI
# HOP-92 = system: HOP-92
# HCC 2998 = system: HCC 2998
# Hs-578T = system: Hs-578T
# CAKI-1 = system: CAKI-1
# OVCAR-5 = system: OVCAR-5
# UO-31 = system: UO-31
# SK-MEL-28 = system: SK-MEL-28
# OVCAR-3 = system: OVCAR-3
# T47D = system: T47D
# ACHN = system: ACHN
# CCRF-CEM = system: CCRF-CEM
# COLO 205 = system: COLO 205
# NCI-H23 = system: NCI-H23
# IGROV-1 = system: IGROV-1
# SF-539 = system: SF-539
# SNB-19 = system: SNB-19
# SF-295 = system: SF-295
# OVCAR-8 = system: OVCAR-8
# SF-268 = system: SF-268
# HCT-15 = system: HCT-15
# MDA-MB-435 = system: MDA-MB-435
# SN12C = system: SN12C
# SK-MEL-2 = system: SK-MEL-2
# DU-145 = system: DU-145
# SR = system: SR
# TK-10 = system: TK-10
# UACC-62 = system: UACC-62
# SW-620 = system: SW-620
# KM12 = system: KM12
# A549 = system: A549
# HCT-116 = system: HCT-116
# MDA-N = system: MDA-N
# HL-60 = system: HL-60
# 786-0 = system: 786-0
# BT-549 = system: BT-549
# PC-3 = system: PC-3
# A498 = system: A498
# NCI-H522 = system: NCI-H522
# MOLT-4 = system: MOLT-4
# UACC-257 = system: UACC-257
# HT-29 = system: HT-29
# K562 = system: K562
# MCF7 = system: MCF7
# NCI/ADR-RES = system: NCI/ADR-RES
# OVCAR-4 = system: OVCAR-4
# U-251 = system: U-251
# NCI-H226 = system: NCI-H226
# HOP-62 = system: HOP-62
# RPMI-8226 = system: RPMI-8226
# RXF 393 = system: RXF 393
# Malme-3M = system: Malme-3M
# NCI-H460 = system: NCI-H460
# EKVX = system: EKVX
# SK-MEL-5 = system: SK-MEL-5
# MDA-MB-231 = system: MDA-MB-231
# M14 = system: M14
# SK-OV-3 = system: SK-OV-3
# SNB-75 = system: SNB-75
compound,measurement,setting,value
O=C(CCc1ccc(O)c(O)c1)OCCc1ccccc1,GI50,LOX IMVI,22.5 µM (inactive)
same,GI50,HOP-92,> 21.2 µM (inactive)
same,GI50,HCC 2998,> 100 µM (inactive)
same,GI50,Hs-578T,> 100 µM (inactive)
same,GI50,CAKI-1,78.3 µM (inactive)
same,GI50,OVCAR-5,> 100 µM (inactive)
same,GI50,UO-31,> 80.9 µM (inactive)
same,GI50,SK-MEL-28,> 100 µM (inactive)
same,GI50,OVCAR-3,29.6 µM (inactive)
same,GI50,T47D,> 96.4 µM (inactive)
same,GI50,ACHN,59.7 µM (inactive)
same,GI50,CCRF-CEM,4.86 µM (inactive)
same,GI50,COLO 205,42.7 µM (inactive)
same,GI50,NCI-H23,> 65.3 µM (inactive)
same,GI50,IGROV-1,54.1 µM (inactive)
same,GI50,SF-539,18.6 µM (inactive)
same,GI50,SNB-19,> 100 µM (inactive)
same,GI50,SF-295,> 100 µM (inactive)
same,GI50,OVCAR-8,23.1 µM (inactive)
same,GI50,SF-268,> 100 µM (inactive)
same,GI50,HCT-15,> 53 µM
same,GI50,MDA-MB-435,20.8 µM (inactive)
same,GI50,SN12C,> 61.1 µM (inactive)
same,GI50,SK-MEL-2,> 100 µM (inactive)
same,GI50,DU-145,> 100 µM (inactive)
same,GI50,SR,17.6 µM (inactive)
same,GI50,TK-10,> 100 µM (inactive)
same,GI50,UACC-62,45.4 µM (inactive)
same,GI50,SW-620,31.1 µM (inactive)
same,GI50,KM12,> 100 µM (inactive)
same,GI50,A549,> 100 µM (inactive)
same,GI50,HCT-116,44.6 µM (inactive)
same,GI50,MDA-N,15.4 µM (inactive)
same,GI50,HL-60,3.85 µM (inactive)
same,GI50,786-0,19.7 µM (inactive)
same,GI50,BT-549,> 100 µM (inactive)
same,GI50,PC-3,> 100 µM (inactive)
same,GI50,A498,> 100 µM (inactive)
same,GI50,NCI-H522,3.7 µM (inactive)
same,GI50,MOLT-4,15.1 µM (inactive)
same,GI50,UACC-257,> 82.2 µM (inactive)
same,GI50,HT-29,> 100 µM (inactive)
same,GI50,K562,20.4 µM (inactive)
same,GI50,MCF7,> 62.1 µM (inactive)
same,GI50,NCI/ADR-RES,> 100 µM (inactive)
same,GI50,OVCAR-4,29.6 µM (inactive)
same,GI50,U-251,> 100 µM (inactive)
same,GI50,NCI-H226,> 100 µM (inactive)
same,GI50,HOP-62,> 31.6 µM (inactive)
same,GI50,RPMI-8226,18.9 µM (inactive)
same,GI50,RXF 393,> 67 µM (inactive)
same,GI50,Malme-3M,> 88.9 µM (inactive)
same,GI50,NCI-H460,> 100 µM (inactive)
same,GI50,EKVX,> 100 µM (inactive)
same,GI50,SK-MEL-5,42.2 µM (inactive)
same,GI50,MDA-MB-231,67.6 µM (inactive)
same,GI50,M14,67.3 µM (inactive)
same,GI50,SK-OV-3,> 100 µM (inactive)
Nc1nc(N)nc(CCCc2nc(N)nc(N)n2)n1,GI50,LOX IMVI,> 100 µM (inactive)
same,GI50,HOP-92,> 100 µM (inactive)
same,GI50,Hs-578T,> 100 µM (inactive)
same,GI50,CAKI-1,> 100 µM (inactive)
same,GI50,OVCAR-5,> 100 µM (inactive)
same,GI50,UO-31,> 100 µM (inactive)
same,GI50,SK-MEL-28,> 100 µM (inactive)
same,GI50,OVCAR-3,> 100 µM (inactive)
same,GI50,T47D,> 100 µM (inactive)
same,GI50,ACHN,> 100 µM (inactive)
same,GI50,CCRF-CEM,> 100 µM (inactive)
same,GI50,COLO 205,> 100 µM (inactive)
same,GI50,NCI-H23,> 100 µM (inactive)
same,GI50,IGROV-1,> 100 µM (inactive)
same,GI50,SF-539,> 100 µM (inactive)
same,GI50,SNB-19,> 100 µM (inactive)
same,GI50,SF-295,> 100 µM (inactive)
same,GI50,OVCAR-8,> 100 µM (inactive)
same,GI50,SF-268,> 100 µM (inactive)
same,GI50,HCT-15,> 100 µM
same,GI50,MDA-MB-435,> 100 µM (inactive)
same,GI50,SN12C,> 100 µM (inactive)
same,GI50,SK-MEL-2,> 100 µM (inactive)
same,GI50,DU-145,> 100 µM (inactive)
same,GI50,SR,> 100 µM (inactive)
same,GI50,TK-10,> 100 µM (inactive)
same,GI50,UACC-62,> 100 µM (inactive)
same,GI50,SW-620,> 100 µM (inactive)
same,GI50,KM12,> 100 µM (inactive)
same,GI50,A549,> 100 µM (inactive)
same,GI50,HCT-116,> 100 µM (inactive)
same,GI50,MDA-N,> 100 µM (inactive)
same,GI50,HL-60,> 100 µM (inactive)
same,GI50,786-0,> 100 µM (inactive)
same,GI50,BT-549,> 100 µM (inactive)
same,GI50,PC-3,> 100 µM (inactive)
same,GI50,A498,> 100 µM (inactive)
same,GI50,NCI-H522,> 100 µM (inactive)
same,GI50,SNB-75,> 100 µM (inactive)
same,GI50,MOLT-4,> 100 µM (inactive)
same,GI50,UACC-257,> 100 µM (inactive)
same,GI50,HT-29,> 100 µM (inactive)
same,GI50,K562,> 100 µM (inactive)
same,GI50,MCF7,> 100 µM (inactive)
same,GI50,NCI/ADR-RES,> 100 µM (inactive)
same,GI50,OVCAR-4,> 100 µM (inactive)
same,GI50,U-251,> 100 µM (inactive)
same,GI50,NCI-H226,> 100 µM (inactive)
same,GI50,HOP-62,> 100 µM (inactive)
same,GI50,RPMI-8226,> 100 µM (inactive)
same,GI50,RXF 393,> 100 µM (inactive)
same,GI50,Malme-3M,> 100 µM (inactive)
same,GI50,NCI-H460,> 100 µM (inactive)
same,GI50,EKVX,> 100 µM (inactive)
same,GI50,SK-MEL-5,> 100 µM (inactive)
same,GI50,MDA-MB-231,> 100 µM (inactive)
same,GI50,M14,> 100 µM (inactive)
same,GI50,SK-OV-3,> 100 µM (inactive)
CC(C)(C)c1ccc(-n2c3nc(=O)n(-c4ccccc4CO)c(=O)c-3cc3ccccc32)cc1,GI50,LOX IMVI,20.5 µM (inactive)
same,GI50,HOP-92,36.8 µM (inactive)
same,GI50,HCC 2998,38 µM (inactive)
same,GI50,Hs-578T,64.3 µM (inactive)
same,GI50,CAKI-1,> 100 µM (inactive)
same,GI50,OVCAR-5,> 100 µM (inactive)
same,GI50,UO-31,42.1 µM (inactive)
same,GI50,SK-MEL-28,38.7 µM (inactive)
same,GI50,T47D,50 µM (inactive)
same,GI50,ACHN,69.7 µM (inactive)
same,GI50,CCRF-CEM,38.1 µM (inactive)
same,GI50,COLO 205,46.5 µM (inactive)
same,GI50,NCI-H23,53.1 µM (inactive)
same,GI50,IGROV-1,71.9 µM (inactive)
same,GI50,SF-539,30.5 µM (inactive)
same,GI50,SNB-19,74.8 µM (inactive)
same,GI50,SF-295,41.1 µM (inactive)
same,GI50,OVCAR-8,55.3 µM (inactive)
same,GI50,SF-268,40.6 µM (inactive)
same,GI50,HCT-15,48.4 µM
same,GI50,MDA-MB-435,36.1 µM (inactive)
same,GI50,SN12C,57.7 µM (inactive)
same,GI50,SK-MEL-2,> 10 µM (inactive)
same,GI50,DU-145,42.4 µM (inactive)
same,GI50,SR,30.5 µM (inactive)
same,GI50,TK-10,61.5 µM (inactive)
same,GI50,UACC-62,26.8 µM (inactive)
same,GI50,SW-620,39.2 µM (inactive)
same,GI50,KM12,37.7 µM (inactive)
same,GI50,A549,76.2 µM (inactive)
same,GI50,HCT-116,38.4 µM (inactive)
same,GI50,MDA-N,22.2 µM (inactive)
same,GI50,HL-60,23.8 µM (inactive)
same,GI50,786-0,87.1 µM (inactive)
same,GI50,BT-549,38.4 µM (inactive)
same,GI50,PC-3,39.7 µM (inactive)
same,GI50,A498,> 100 µM (inactive)
same,GI50,NCI-H522,32.7 µM (inactive)
same,GI50,SNB-75,26.2 µM (inactive)
same,GI50,MOLT-4,16.1 µM (inactive)
same,GI50,UACC-257,30.5 µM (inactive)
same,GI50,HT-29,26.6 µM (inactive)
same,GI50,K562,45.7 µM (inactive)
same,GI50,MCF7,65.6 µM (inactive)
same,GI50,NCI/ADR-RES,50 µM (inactive)
same,GI50,OVCAR-4,49 µM (inactive)
same,GI50,U-251,55.6 µM (inactive)
same,GI50,NCI-H226,28 µM (inactive)
same,GI50,RXF 393,22.8 µM (inactive)
same,GI50,Malme-3M,> 100 µM (inactive)
same,GI50,NCI-H460,38.9 µM (inactive)
same,GI50,EKVX,48.9 µM (inactive)
same,GI50,SK-MEL-5,38.9 µM (inactive)
same,GI50,MDA-MB-231,19.9 µM (inactive)
same,GI50,M14,42.8 µM (inactive)
